Source: ChEMBL document CHEMBL4765492, “Discovery of GLPG2451, a Novel Once Daily Potentiator for the Treatment of Cystic Fibrosis” (J Med Chem, 2021)
In brackets after ≈: the same amount, converted by molar mass. Activity calls are given as the source filed them. The calls are words filed in the database; no cut-off is given here.

Tests used:
[1] = Clearance in Sprague-Dawley rat at 1 mg/kg, iv; assay type: ADME, organism-based; details: in vivo
[2] = target: T1, Cystic fibrosis transmembrane conductance regulator (Homo sapiens, UniProt P13569, F508DEL); assay: Potentiation of CFTR F508del mutant (unknown origin) expressed in human CFBE41o- cells co-expressing YFP incubated for 10 mins by halide potentiator assay; assay type: cell-based
[3] = Unbound intrinsic clearance in rat liver microsomes; assay type: ADME, Microsome
[4] = Unbound intrinsic clearance in human liver microsomes; assay type: ADME, Microsome
[5] = Half life in Sprague-Dawley rat at 1 mg/kg, iv; assay type: ADME, organism-based; details: in vivo
[6] = Volume of distribution at steady state in Sprague-Dawley rat at 1 mg/kg, iv; assay type: ADME, organism-based; details: in vivo, read-out: Vdss
[7] = Unbound clearance in Sprague-Dawley rat at 1 mg/kg, iv; assay type: ADME, organism-based; details: in vivo
[8] = Kinetic aqueous solubility of the compound at pH 7.4; assay type: physicochemical; details: buffer, read-out: Kinetic_solubility
[9] = target: T2, Nuclear receptor subfamily 1 group I member 2 (Homo sapiens, UniProt O75469); assay: Activation of PXR (unknown origin) at 10 uM by CYP450 induction assay relative to rifampicin; assay type: ADME
T2 sequence (O75469 whole entry): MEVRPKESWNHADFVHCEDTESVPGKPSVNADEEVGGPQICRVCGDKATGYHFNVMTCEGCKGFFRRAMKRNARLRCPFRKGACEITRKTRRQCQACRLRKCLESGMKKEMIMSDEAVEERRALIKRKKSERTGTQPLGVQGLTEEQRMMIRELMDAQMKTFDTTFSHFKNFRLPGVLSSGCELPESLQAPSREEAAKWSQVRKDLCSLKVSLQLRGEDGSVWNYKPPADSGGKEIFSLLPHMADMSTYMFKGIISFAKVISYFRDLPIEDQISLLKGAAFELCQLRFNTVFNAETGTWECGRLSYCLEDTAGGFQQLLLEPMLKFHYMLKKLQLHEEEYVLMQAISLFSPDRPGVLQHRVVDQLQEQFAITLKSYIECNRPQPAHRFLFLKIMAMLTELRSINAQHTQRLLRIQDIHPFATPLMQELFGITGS

[10] = Inhibition of CYP450 (unknown origin); assay type: ADME; details: human
[11] = Genotoxicity in Salmonella typhimurium; assay type: toxicity; details: salmonella enterica subsp. enterica serovar typhimurium
[12] = tested on: Cystic fibrosis transmembrane conductance regulator (Homo sapiens), P13569 [G551D]; assay: Potentiation of CFTR G551D mutant (unknown origin) expressed in human HEK293 cells co-expressing YFP incubated for 10 mins by halide potentiator assay relative to control; assay type: cell-based; details: filed as activator
[13] = AUC in rat at 5 mg/kg, po; assay type: ADME, organism-based; set-up: dose 5 mg/kg; details: in vivo
[14] = target: Cystic fibrosis transmembrane conductance regulator (Homo sapiens, UniProt P13569, G551D); assay: Potentiation of CFTR G551D mutant (unknown origin) expressed in human HEK293 cells co-expressing YFP incubated for 10 mins by halide potentiator assay; assay type: cell-based
[15] = Clearance in rat at 1 mg/kg, iv relative to hepatic blood flow; assay type: ADME, organism-based; details: in vivo
[16] = Oral bioavailability in rat at 5 mg/kg; assay type: ADME, organism-based; details: in vivo
[17] = Permeability efflux ratio in MDCK cells; assay type: ADME, cell-based, Canis lupus familiaris; details: dog
[18] = Permeability of compound across apical to basolateral membrane in MDCK cells; assay type: ADME, cell-based, Canis lupus familiaris; details: dog, read-out: permeability
Cytochrome P450 3A4 = Cytochrome P450 3A4 (Homo sapiens, UniProt P08684); assay: Inhibition of CYP3A4 (unknown origin); assay type: ADME
[19] = Oral bioavailability in Beagle dog at 1 mg/kg; assay type: ADME, organism-based, Canis lupus familiaris; details: in vivo
[20] = Half life in Beagle dog at 1 mg/kg, iv; assay type: ADME, organism-based, Canis lupus familiaris; details: in vivo
[21] = Unbound clearance in Cynomolgus monkey at 1 mg/kg, iv; assay type: ADME, organism-based, Macaca fascicularis; details: in vivo
[22] = Toxicity in human assessed as drug tolerability during phase I study
Cytochrome P450 2D6 = Cytochrome P450 2D6 (Homo sapiens, UniProt P10635); assay: Inhibition of CYP2D6 (unknown origin); assay type: ADME
[23] = Volume of distribution at steady state in Beagle dog at 1 mg/kg, iv; assay type: ADME, organism-based, Canis lupus familiaris; details: in vivo, read-out: Vdss
[24] = Unbound intrinsic clearance in monkey liver microsomes; assay type: ADME, Macaca mulatta, Microsome; details: rhesus monkey
Cytochrome P450 2C9 = Cytochrome P450 2C9 (Homo sapiens, UniProt P11712); assay: Inhibition of CYP2C9 (unknown origin); assay type: ADME
[25] = Thermodynamic solubility of the compound in the FASSIF medium; assay type: physicochemical; details: read-out: Therm_solubility
[26] = Clearance in Beagle dog at 1 mg/kg, iv; assay type: ADME, organism-based, Canis lupus familiaris; details: in vivo
[27] = Clearance in Cynomolgus monkey at 1 mg/kg, iv; assay type: ADME, organism-based, Macaca fascicularis; details: in vivo
[28] = Unbound clearance in Beagle dog at 1 mg/kg, iv; assay type: ADME, organism-based, Canis lupus familiaris; details: in vivo
[29] = target: T1, Cystic fibrosis transmembrane conductance regulator; assay: Potentiation of CFTR F508del mutant in human HBE cells by trans-epithelial clamp circuit assay; assay type: cell-based, Primary bronchial epithelial cell
Cytochrome P450 1A2 = target: T3, Cytochrome P450 1A2 (Homo sapiens, UniProt P05177); assay: Inhibition of CYP1A2 (unknown origin); assay type: ADME
T3 sequence (P05177 whole entry): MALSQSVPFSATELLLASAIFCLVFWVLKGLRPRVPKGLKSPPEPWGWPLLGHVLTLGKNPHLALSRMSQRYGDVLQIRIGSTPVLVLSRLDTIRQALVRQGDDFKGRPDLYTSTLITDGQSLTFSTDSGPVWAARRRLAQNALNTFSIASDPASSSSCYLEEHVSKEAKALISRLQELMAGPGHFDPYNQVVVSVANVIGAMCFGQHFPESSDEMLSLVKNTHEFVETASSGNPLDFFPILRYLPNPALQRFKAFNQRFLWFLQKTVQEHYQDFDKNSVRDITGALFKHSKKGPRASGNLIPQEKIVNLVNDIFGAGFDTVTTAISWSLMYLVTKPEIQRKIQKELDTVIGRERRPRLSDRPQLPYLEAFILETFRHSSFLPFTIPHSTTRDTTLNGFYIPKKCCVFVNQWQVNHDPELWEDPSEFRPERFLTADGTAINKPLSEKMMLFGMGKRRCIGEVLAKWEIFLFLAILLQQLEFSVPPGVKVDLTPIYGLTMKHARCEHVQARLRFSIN

[30] = Unbound intrinsic clearance in dog liver microsomes; assay type: ADME, Canis lupus familiaris, Microsome
[31] = Oral bioavailability Cynomolgus monkey at 1 mg/kg, […]; assay type: ADME, organism-based, Macaca fascicularis; details: in vivo
Cytochrome P450 2C19 = Cytochrome P450 2C19 (Homo sapiens, UniProt P33261); assay: Inhibition of CYP2C19 (unknown origin); assay type: ADME
[32] = target: Voltage-gated inwardly rectifying potassium channel KCNH2 (Homo sapiens, UniProt Q12809); assay: Inhibition of human ERG by manual patch clamp assay
[33] = Volume of distribution at steady state in Cynomolgus monkey at 1 mg/kg, iv; assay type: ADME, organism-based, Macaca fascicularis; details: in vivo, read-out: Vdss
[34] = Half life in Cynomolgus monkey at 1 mg/kg, iv; assay type: ADME, organism-based, Macaca fascicularis; details: in vivo
[35] = tested on: Cystic fibrosis transmembrane conductance regulator (Homo sapiens), P13569 [F508del,G551D]; assay: Potentiation of CFTR F508del/G551D mutant in human HBE cells assessed as increase in channel current at 10 nM to 1000 nM incubated for 20 mins by Ussing chamber assay; assay type: cell-based; details: Primary bronchial epithelial cell, filed as activator
Cystic fibrosis transmembrane conductance regulator (Homo sapiens), P13569 [F508del,G551D], sequence (P13569 as listed by the source): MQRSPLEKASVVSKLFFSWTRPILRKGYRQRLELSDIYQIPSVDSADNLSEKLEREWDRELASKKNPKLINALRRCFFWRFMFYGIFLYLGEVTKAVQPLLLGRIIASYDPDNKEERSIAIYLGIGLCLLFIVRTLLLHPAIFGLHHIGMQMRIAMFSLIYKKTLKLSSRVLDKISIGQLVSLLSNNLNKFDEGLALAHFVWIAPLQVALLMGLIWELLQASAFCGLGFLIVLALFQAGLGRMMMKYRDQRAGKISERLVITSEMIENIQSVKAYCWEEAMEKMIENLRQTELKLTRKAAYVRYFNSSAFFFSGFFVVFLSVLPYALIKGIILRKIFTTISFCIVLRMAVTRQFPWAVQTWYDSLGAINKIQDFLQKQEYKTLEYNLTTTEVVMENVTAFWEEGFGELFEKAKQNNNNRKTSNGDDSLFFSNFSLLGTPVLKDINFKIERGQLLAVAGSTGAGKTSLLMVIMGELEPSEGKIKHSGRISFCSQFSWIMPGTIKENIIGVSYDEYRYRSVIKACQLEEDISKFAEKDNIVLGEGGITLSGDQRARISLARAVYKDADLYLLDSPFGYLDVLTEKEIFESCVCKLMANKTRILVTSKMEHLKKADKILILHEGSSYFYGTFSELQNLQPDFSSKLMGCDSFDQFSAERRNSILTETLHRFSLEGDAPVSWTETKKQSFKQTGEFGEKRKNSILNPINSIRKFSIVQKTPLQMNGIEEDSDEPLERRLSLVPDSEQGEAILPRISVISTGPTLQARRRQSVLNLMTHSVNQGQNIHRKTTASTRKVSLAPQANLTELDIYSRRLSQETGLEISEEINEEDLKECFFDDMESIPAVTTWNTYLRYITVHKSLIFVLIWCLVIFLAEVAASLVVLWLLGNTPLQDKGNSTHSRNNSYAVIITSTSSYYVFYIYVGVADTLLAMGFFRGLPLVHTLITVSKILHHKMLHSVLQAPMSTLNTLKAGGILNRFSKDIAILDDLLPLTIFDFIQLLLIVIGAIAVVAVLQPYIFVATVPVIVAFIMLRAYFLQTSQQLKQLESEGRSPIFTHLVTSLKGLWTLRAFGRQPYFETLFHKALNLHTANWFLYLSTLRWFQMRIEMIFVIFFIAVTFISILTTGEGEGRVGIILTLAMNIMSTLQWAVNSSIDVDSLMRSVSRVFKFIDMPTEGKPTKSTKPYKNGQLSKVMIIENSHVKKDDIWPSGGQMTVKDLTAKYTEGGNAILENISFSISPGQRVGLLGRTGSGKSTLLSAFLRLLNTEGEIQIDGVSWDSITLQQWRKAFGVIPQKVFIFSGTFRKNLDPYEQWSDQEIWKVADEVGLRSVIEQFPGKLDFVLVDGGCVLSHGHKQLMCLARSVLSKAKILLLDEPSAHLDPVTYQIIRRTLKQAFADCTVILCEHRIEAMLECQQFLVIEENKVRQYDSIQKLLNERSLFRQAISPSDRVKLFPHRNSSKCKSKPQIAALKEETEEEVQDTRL

T1 sequence (P13569 as listed by the source): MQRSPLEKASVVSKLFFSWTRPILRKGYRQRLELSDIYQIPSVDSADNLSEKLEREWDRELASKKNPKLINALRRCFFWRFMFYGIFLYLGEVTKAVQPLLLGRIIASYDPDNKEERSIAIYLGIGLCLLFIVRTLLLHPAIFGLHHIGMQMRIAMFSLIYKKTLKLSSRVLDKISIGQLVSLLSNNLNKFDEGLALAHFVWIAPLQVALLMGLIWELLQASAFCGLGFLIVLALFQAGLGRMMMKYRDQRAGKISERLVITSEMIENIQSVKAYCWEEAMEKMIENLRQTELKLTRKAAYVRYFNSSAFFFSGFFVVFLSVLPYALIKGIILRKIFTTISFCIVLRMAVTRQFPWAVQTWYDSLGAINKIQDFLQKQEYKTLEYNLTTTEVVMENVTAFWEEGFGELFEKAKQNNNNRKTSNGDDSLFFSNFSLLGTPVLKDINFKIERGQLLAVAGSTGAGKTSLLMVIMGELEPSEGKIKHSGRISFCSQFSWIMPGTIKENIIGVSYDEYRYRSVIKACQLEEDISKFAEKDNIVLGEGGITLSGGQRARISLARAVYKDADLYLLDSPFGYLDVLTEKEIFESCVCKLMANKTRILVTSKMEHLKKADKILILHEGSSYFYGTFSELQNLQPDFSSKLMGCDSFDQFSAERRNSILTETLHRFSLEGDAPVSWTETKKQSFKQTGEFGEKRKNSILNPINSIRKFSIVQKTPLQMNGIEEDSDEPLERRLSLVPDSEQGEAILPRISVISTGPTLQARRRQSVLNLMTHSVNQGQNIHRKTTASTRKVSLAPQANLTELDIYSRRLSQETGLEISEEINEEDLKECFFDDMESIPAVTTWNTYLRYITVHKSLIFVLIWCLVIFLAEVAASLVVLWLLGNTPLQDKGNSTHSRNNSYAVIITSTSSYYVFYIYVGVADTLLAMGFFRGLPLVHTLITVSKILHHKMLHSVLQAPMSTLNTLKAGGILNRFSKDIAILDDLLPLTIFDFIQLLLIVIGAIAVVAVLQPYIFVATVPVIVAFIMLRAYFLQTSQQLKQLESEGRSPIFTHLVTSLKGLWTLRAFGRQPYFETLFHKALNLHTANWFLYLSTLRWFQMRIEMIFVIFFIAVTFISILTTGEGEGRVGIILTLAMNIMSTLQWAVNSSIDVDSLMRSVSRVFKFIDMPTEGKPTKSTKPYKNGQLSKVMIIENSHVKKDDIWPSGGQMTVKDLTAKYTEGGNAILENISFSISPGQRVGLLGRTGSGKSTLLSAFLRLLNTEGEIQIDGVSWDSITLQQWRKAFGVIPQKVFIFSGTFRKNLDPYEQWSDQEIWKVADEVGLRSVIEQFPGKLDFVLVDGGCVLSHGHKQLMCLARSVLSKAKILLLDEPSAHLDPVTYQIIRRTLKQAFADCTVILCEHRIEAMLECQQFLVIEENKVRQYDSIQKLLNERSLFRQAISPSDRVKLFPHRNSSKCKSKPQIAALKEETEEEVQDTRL
Cystic fibrosis transmembrane conductance regulator (Homo sapiens), P13569 [G551D], sequence (P13569 whole entry G551D): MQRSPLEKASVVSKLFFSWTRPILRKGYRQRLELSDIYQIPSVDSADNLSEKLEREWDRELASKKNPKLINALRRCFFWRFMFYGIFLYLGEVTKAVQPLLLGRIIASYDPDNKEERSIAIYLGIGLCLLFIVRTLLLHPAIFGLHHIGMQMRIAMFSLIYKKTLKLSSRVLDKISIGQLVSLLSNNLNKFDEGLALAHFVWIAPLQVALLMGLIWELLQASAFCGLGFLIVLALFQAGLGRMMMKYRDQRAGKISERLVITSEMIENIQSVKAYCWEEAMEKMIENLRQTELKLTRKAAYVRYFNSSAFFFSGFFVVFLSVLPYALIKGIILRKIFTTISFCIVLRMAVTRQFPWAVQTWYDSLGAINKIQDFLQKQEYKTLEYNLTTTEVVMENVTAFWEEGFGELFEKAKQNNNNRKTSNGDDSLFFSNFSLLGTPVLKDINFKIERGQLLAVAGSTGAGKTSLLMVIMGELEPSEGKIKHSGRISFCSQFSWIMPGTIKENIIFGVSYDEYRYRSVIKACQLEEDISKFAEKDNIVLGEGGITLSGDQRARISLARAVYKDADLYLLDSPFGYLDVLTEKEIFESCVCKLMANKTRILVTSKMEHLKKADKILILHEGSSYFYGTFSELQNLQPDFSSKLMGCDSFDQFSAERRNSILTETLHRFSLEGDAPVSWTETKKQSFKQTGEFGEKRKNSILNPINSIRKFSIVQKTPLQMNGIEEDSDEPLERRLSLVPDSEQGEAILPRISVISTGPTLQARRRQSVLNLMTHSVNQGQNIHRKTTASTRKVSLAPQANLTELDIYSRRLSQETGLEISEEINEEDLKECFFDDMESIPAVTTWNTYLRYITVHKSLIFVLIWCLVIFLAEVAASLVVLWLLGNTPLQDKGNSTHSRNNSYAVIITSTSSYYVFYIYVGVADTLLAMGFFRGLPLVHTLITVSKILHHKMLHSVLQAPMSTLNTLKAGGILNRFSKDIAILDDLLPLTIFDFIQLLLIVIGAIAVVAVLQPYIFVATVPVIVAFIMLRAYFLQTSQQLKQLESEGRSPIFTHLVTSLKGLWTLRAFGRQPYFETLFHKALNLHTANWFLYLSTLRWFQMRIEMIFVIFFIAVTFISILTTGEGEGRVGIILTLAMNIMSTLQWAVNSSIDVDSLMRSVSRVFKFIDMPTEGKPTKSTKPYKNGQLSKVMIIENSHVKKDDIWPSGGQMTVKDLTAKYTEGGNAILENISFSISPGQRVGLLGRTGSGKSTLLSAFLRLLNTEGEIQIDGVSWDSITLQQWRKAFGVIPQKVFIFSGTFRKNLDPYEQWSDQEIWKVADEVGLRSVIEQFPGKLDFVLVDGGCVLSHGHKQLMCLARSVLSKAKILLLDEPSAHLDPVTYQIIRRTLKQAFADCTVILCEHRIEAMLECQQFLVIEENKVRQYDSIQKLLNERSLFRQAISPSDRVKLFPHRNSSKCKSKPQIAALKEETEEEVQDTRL
Cytochrome P450 2C19, sequence (P33261 whole entry): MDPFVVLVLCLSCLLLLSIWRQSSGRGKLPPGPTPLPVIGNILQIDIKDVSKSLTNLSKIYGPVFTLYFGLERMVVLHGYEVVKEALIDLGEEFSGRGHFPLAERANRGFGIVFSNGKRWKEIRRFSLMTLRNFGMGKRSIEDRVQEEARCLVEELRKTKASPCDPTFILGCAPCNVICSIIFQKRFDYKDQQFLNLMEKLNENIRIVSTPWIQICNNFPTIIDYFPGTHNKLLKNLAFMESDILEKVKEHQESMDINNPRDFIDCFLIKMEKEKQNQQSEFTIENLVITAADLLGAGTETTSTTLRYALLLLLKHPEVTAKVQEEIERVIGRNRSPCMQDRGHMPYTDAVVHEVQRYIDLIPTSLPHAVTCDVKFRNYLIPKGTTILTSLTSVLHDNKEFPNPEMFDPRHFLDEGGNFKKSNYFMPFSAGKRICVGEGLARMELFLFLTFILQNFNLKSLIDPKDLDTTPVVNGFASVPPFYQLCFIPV

Nc1cc(S(=O)(=O)c2ccc(F)cc2)cnc1C(=O)NC[C@@H](O)C(F)(F)F
clearance [1]: 2.17 mL/min/kg
EC50 [2]: 7.8 nM
CL free [3]: 26.7 mL/min/kg
CL free [4]: 17 mL/min/kg
half-life [5]: > 15 h
Vd [6]: 2.9 L/kg
CL free [7]: 26.8 mL/min/kg

CC(C)(O)CNC(=O)c1ncc(S(=O)(=O)c2ccc(OC(F)(F)F)cc2)cc1N
solubility kinetic [8]: 37 µM (≈ 16 µg/mL)
Activity [9]: 41%
EC50 [2]: 33 nM
CL free [3]: 93.3 mL/min/kg
inhibition (INH) [10]: Not Active
Activity [11]: Non-Toxic

Nc1cc(S(=O)(=O)N2CCC(OC(F)(F)F)CC2)cnc1C(=O)NCC(O)C(F)(F)F (stereo not given)
clearance [1]: 31.7 mL/min/kg
EC50 [2]: 5 nM
CL free [3]: 300 mL/min/kg
CL free [4]: 130 mL/min/kg
half-life [5]: 1.3 h
Vd [6]: 3.2 L/kg
CL free [7]: 317 mL/min/kg

CN(C[C@@H](O)C(F)(F)F)C(=O)c1ncc(S(=O)(=O)c2ccc(F)cc2)cc1N
EC50 [2]: > 2000 nM

COc1ccc(S(=O)(=O)c2cc(C(N)=O)c(NC(=O)C(C)(C)O)s2)cc1
clearance [1]: 2.05 mL/min/kg
EC50 [2]: 20 nM
CL free [3]: 33 mL/min/kg
Activity [12]: 85%
CL free [4]: 10 mL/min/kg
half-life [5]: 15.5 h
Vd [6]: 2.7 L/kg
CL free [7]: 167 mL/min/kg
AUC [13]: 12400 ng·h/mL
EC50 [14]: 478 nM
CLH [15]: < 3%
bioavailability [16]: 46%

NC(=O)c1cc(S(=O)(=O)c2ccc(F)cc2)sc1NC(=O)c1ccn[nH]1
efflux ratio [17]: 37
EC50 [2]: 29 nM
CL free [3]: 71.7 mL/min/kg
Papp A→B [18]: 0.9 ×10⁻⁶ cm/s

Nc1cc(S(=O)(=O)c2ccc(OC(F)(F)F)cc2)cnc1C(=O)NCC1(O)CC1
EC50 [2]: 2.8 nM
CL free [3]: 93.3 mL/min/kg

C[C@H](O)CNC(=O)c1ncc(S(=O)(=O)c2ccc(OC(F)(F)F)cc2)cc1N
EC50 (Cytochrome P450 3A4): > 100000 nM
solubility kinetic [8]: 37 µM (≈ 15.5 µg/mL)
clearance [1]: 1.33 mL/min/kg
bioavailability [19]: 93%
half-life [20]: 15 h
CL free [21]: 21.7 mL/min/kg
Activity [22]: Non-Toxic
Activity [9]: 12%
EC50 (Cytochrome P450 2D6): > 100000 nM
EC50 [2]: 11 nM
CL free [3]: 41.7 mL/min/kg
Vd [23]: 2.7 L/kg
CL free [24]: 18.3 mL/min/kg
EC50 (Cytochrome P450 2C9): 26000 nM
solubility thermodynamic [25]: 83 µM (≈ 34.8 µg/mL)
clearance [26]: 2.33 mL/min/kg
CL free [4]: 20 mL/min/kg
clearance [27]: 0.667 mL/min/kg
CL free [28]: 33 mL/min/kg
EC50 [29]: 18 nM
half-life [5]: 8.9 h
EC50 (Cytochrome P450 1A2): > 100000 nM
CL free [30]: 28.3 mL/min/kg
Vd [6]: 1.1 L/kg
F [31]: 100%
CL free [7]: 45 mL/min/kg
EC50 (Cytochrome P450 2C19): > 33000 nM
EC50 [32]: > 30000 nM
Vd [33]: 0.8 L/kg
half-life [34]: 16 h

CN(Cc1ccccc1)S(=O)(=O)c1cc(C(N)=O)c(NC(=O)c2ccn[nH]2)s1
efflux ratio [17]: 47
EC50 [2]: 17 nM
CL free [3]: 1880 mL/min/kg
Activity [12]: 115%
Activity [35]: Active
Papp A→B [18]: 0.65 ×10⁻⁶ cm/s
